For one data set, the system named is Bacillus cereus UW85. Kind of data set: Antibacterial MIC, two-fold serial dilution. Type of data set: cell-based. Conditions: Gram +ve bacteria, LB broth, 37°C, 24 h, visual (no turbidity), read-out: MIC B. cereus. The procedure:
(§1) The antimicrobial activity of the synthesized thiadiazolopyrimidine compounds was studied toward diverse pathogenic strains, such as gram-positive bacteria (Staphylococcus aureus ATCC 29213 and Bacillus cereus UW85), gram-negative bacteria (Escherichia coli ATCC 12435 and Pseudomonas aeruginosa ATCC 29260), and fungi (Candida albicans and Aspergillus fumigatus 293). The assessment was performed through the two-fold dilution technique using Ampicillin (antibacterial) and Fluconazole (antifungal) as the reference drugs[28],[29]. The minimal inhibitory concentration (MICs, µg/mL) of the synthesized derivatives for prohibiting microbial growth was determined through the visual detection (no turbidity) technique.
(§2) The synthesized thiadiazolopyrimidine-based compounds were evaluated and adopted for antibacterial and antifungal effectiveness using the approved procedure[38],[39].
(§3) Minimal inhibitory concentrations (MICs) were determined by serial dilution technique using 96-multiwell microtiter plates. The investigated compounds were dissolved in DMSO 100% to prepare stock solutions of 5000 µg/mL. Two-fold serial dilutions of the dissolved compounds were performed in LB broth providing eight different concentrations (1250, 625, 312.5, 156, 78, 39, 19.5 µg/mL). Overnight cultures of microorganisms were diluted to 1 ×10^6 CFU/mL in LB broth, and 20 mL of the diluted cultures were added to the test solutions (50 mL) in the wells (one well per concentration per bacterial strain). The plates were incubated at 37°C for 24 h. MIC was detected visually as the least concentration inhibiting bacterial growth (no turbidity) and the activity of the tested compounds was estimated in comparison to ampicillin.

In data set [1] the test system is Escherichia coli ATCC 12435. Kind of data set: Antibacterial MIC, two-fold serial dilution. The format is cell-based. Conditions: ATCC12435, Gram −ve bacteria, LB broth, 37°C, 24 h, visual (no turbidity). On the procedure: as §1, §2, §3
In data set [2] the test system is Pseudomonas aeruginosa ATCC 29260. Briefly: Antibacterial MIC, two-fold serial dilution. Type of data set: cell-based. The settings on record: ATCC29260, Gram −ve bacteria, LB broth, 37°C, 24 h, visual (no turbidity), read-out: MIC P. aeruginosa. The procedure:
as §1, §2, §3

The subject of data set [3] is Staphylococcus aureus ATCC 29213. Kind of data set: Antibacterial MIC, two-fold serial dilution. The format is cell-based. The settings on record: ATCC29213, Gram +ve bacteria, LB broth, 37°C, 24 h, visual (no turbidity), read-out: MIC S. aureus. On the procedure:
as §1, §2, §3

A further data set concerns Hep-2. Briefly: MTT cytotoxicity assay. The format is cell-based. The settings on record: Homo sapiens, HEp-2, 72 h, 3 days. On the procedure:
(§4) The cytotoxicity of the prepared tri-and tetra-cyclic thiadiazolopyrimidine compounds were examined toward various cancer cell lines, such as liver and breast cancer (MCF-7), prostate cancer (PC3), laryngeal carcinoma (Hep-2), carcinoma (HepG2), and standard normal fibroblast cells (WI38) using the MTT assay[33] at the National Research Centre (Egypt). The cytotoxicity (Table 3) toward 50% inhibition of the cell viability (IC50 values) was assessed using 5-fluorouracil (5-Fu) as the standard anticancer drug.
(§5) The synthesized compounds were subjected to the MTT cytotoxicity assay on the basis of the cited literature.
(§6) MTT cytotoxicity assay: The technical method of MTT assay depends on the reduction of yellow 3-(4,5-methyl-2-thiazolyl)-2,5-diphenyl-2H-tetrazolium bromide (MTT) into purple formazan product, mainly by mitochondrial reductase activity inside the living cells. The cells used in cytotoxicity assay were cultured in RPMI 1640 medium supplemented with 10% fetal calf serum. Cells suspended in the medium (2×10^4 cells/mL) were plated in 96-well culture plates and incubated at 37 °C in a 5% CO2 incubator for 12 hours. The tested sample (2 μL) was added to the cells (2×10^4) in 96-well plates and cultured at 37 °C for 3 days. The cultured cells were mixed with 20 μL of MTT solution and incubated for 4 hours at 37 °C. The supernatant was carefully removed from each well, the formazan crystals were dissolved after addition of DMSO (100 μL) for each well to form the cellular reduction of MTT. After mixing with a mechanical plate mixer, the absorbance of each well was measured by a microplate reader using a test wavelength of 570 nm. The results were expressed as the IC50 values, which inducing 50% inhibition of cell growth of the treated cells when compared to the growth of control cells.

The test system of another data set is HepG2. Briefly: MTT cytotoxicity assay. The settings on record: Homo sapiens, HepG2, 72 h, 3 days. The format is cell-based. The procedure:
as §4, §5, §6

The next data set deals with MCF-7. Briefly: MTT cytotoxicity assay. Type of data set: cell-based. The settings on record: Homo sapiens, MCF7, 72 h, 3 days. On the procedure:
as §4, §5, §6
Background: Tetrazolium assays rely on reduction of a dye to a coloured formazan, in cell work by metabolically active cells.

For a further data set, the system named is PC3. Kind of data set: MTT cytotoxicity assay. Type of data set: cell-based. Conditions: Homo sapiens, PC-3, 72 h, 3 days. The procedure: as §4, §5, §6
Data set [4] in a line: MTT cytotoxicity assay on normal cells. Conditions: human, WI38 normal fibroblast cells. Type of data set: cell-based. The procedure:
as §4, §5, §6

For the next data set, the system named is DNA. Briefly: Bleomycin-dependent DNA damage. The settings on record: test sample 0.1 mg/mL, λ = 532 nm; mean of three replicates ± SD; ascorbic acid 0.24 mM. The format is biochemical. The text has this: Bleomycin-dependent DNA damage. The prepared polycyclic thiadiazolopyrimidine-based compounds were examined through the bleomycin-dependant DNA damage, and the results were compared to that of ascorbic acid as a positive control. The obtained data reflected the ability of these derivatives to protect the DNA from damage. The capability of compounds 16a–b and 17a–b to manifest the best protective effect against DNA damage was indicated by the corresponding absorbance values ranging from 0.031 to 0.053 (Table 4)[35],[36].
Bleomycin-dependent DNA damage experiment: To a mixture of 0.5 mg / mL of DNA, 5 mM magnesium chloride, 50 mM ferric chloride and 0.05 mg / mL bleomycin sulfate was prepared. The test sample was prepared at a concentration of 0.1 mg / mL and added to the mixture. After incubation of the mixture for one hour at 37 °C, 0.05 mL of EDTA (0.1 M) was added to terminate the reaction. In the next step, 0.5 mL of TBA (1% w / v) and 0.5 mL of HCl (25% v / v) were added for colour development and the mixture was heated for 10 minutes at 80 °C. The mixture was centrifuged and the absorbance expressed, the amount of damage to the DNA was measured at λ = 532 nm. L-Ascorbic acid (0.24 mM) was used as a positive control.

In brackets after ≈: the same amount, converted by molar mass.

Usually MIC stands for the lowest concentration found to suppress growth. Usually IC50 stands for the midpoint of a concentration-inhibition curve. Low readings indicate inhibition by little substance, high ones a need for much substance. With `Cc1ccc(N=Nc2c(N)nn3c(N)c4c(=O)nc5scnn5c4nc23)cc1` [Compound 16a, 6,9-Diamino-10-(4-methylphenylazo)-5H-pyrazolo[1′,5′:1,2]pyrimido[5,4-e][1,3,4]thiadiazolo[3,2-a]pyrimidin-5-one], the MIC is more than 1250 µg/mL in the data set on Bacillus cereus UW85, 78 µg/mL (≈ 199 µM) in data set [1], 156 µg/mL (≈ 398 µM) in data set [2] and 1250 µg/mL (≈ 3190 µM) in data set [3]. In addition, the IC50 in the data set on Hep-2 turned out to be 32.7 ± 0.36 µM; with HepG2, 37.6 ± 1.26 µM; in the data set on MCF-7 it was 7.53 ± 0.08 µM; in the data set on PC3 it was 44.2 ± 0.94 µM. In addition, the IC50 at 3 days in data set [4] amounted to 60.1 ± 2.41 µM. Further, the “Absorbance (bleomycin-dependent DNA damage)” value (“Absorbance” for short) in the data set on DNA is 0.039 ± 0.07.

`N#CC1=C(c2ccccc2)OC(N)=C2C(=O)N=C3SC=NN3C12` (centres unmarked) [Compound 9b, 6-Amino-9-cyano-5-oxo-8-phenyl-5H,9aH-pyrano[3,4-e][1,3,4]thiadiazolo[3,2-a]pyrimidine]: the MIC was found to be 156 µg/mL (≈ 482 µM) in the data set on Bacillus cereus UW85, 625 µg/mL (≈ 1930 µM) in [1], 625 µg/mL (≈ 1930 µM) in [2] and 312 µg/mL (≈ 966 µM) in data set [3]. Further, the IC50 with Hep-2 amounted to 11.7 ± 0.36 µM; with HepG2 it was 26.78 ± 0.18 µM; in the data set with MCF-7, 12.8 ± 0.26 µM; in the data set on PC3, 38.4 ± 0.89 µM. The IC50 at 3 days in data set [4] turned out to be 48.2 ± 1.47 µM. The “Absorbance” value in the data set with DNA is reported as 0.083 ± 0.08.

`COc1ccc(N=Nc2c(N)nn3c(N)c4c(=O)nc5scnn5c4nc23)cc1` [Compound 16b, 6,9-Diamino-10-(4-methoxyphenylazo)-5H-pyrazolo[1′,5′:1,2]pyrimido[5,4-e][1,3,4]thiadiazolo[3,2-a]pyrimidin-5-one]: the MIC is more than 1250 µg/mL with Bacillus cereus UW85, 19.5 µg/mL (≈ 47.7 µM) in [1], 78 µg/mL (≈ 191 µM) in data set [2] and 625 µg/mL (≈ 1530 µM) in data set [3]. For the same compound, the IC50 with Hep-2 is 38.2 ± 0.57 µM; in the data set on HepG2, 42.3 ± 0.75 µM; in the data set on MCF-7, 5.69 ± 0.39 µM; in the data set with PC3 it was 47.9 ± 1.48 µM. Inhibition in data set [4] was half-maximal at 62.3 ± 3.03 µM (IC50 at 3 days). In addition, the “Absorbance” value in the data set on DNA is on record as 0.031 ± 0.04.

With `Nc1c2c(=O)nc3scnn3c2nc2nncn12` [Compound 12, 6-Amino-5H-[1,2,4]triazolo[4′,3′:1,2]pyrimido[5,4-e][1,3,4]thiadiazolo[3,2-a]pyrimidin-5-one], the MIC is more than 1250 µg/mL with Bacillus cereus UW85, more than 1250 µg/mL in data set [1], more than 1250 µg/mL in data set [2] and 625 µg/mL (≈ 2400 µM) in [3]. The IC50 in the data set with Hep-2 was determined as 34.1 ± 0.97 µM; in the data set on HepG2, 44.3 ± 1.35 µM; in the data set with MCF-7, 36.92 ± 0.29 µM; with PC3, 47.4 ± 0.89 µM. The compound further gave an IC50 at 3 days in [4] of 17.7 ± 0.71 µM. Besides, the “Absorbance” value with DNA amounted to 0.107 ± 0.08.

Turning to `Nc1n[nH]c2c1c(=O)nc1scnn12` [Compound 4, 3-Aminopyrazolo[4,3-e][1,3,4]thiadiazolo[3,2-a]pyrimidin-4(1H)-one], the MIC with Bacillus cereus UW85 was more than 1250 µg/mL; in data set [1] it was more than 1250 µg/mL; in data set [2], more than 1250 µg/mL; in data set [3], 1250 µg/mL (≈ 6000 µM). In addition, the half-maximal inhibitory concentration (IC50) in the data set on Hep-2 is 78.4 ± 2.2 µM; in the data set on HepG2 it was 15.4 ± 0.45 µM; with MCF-7, 61.2 ± 1.11 µM; with PC3, 72.3 ± 2.18 µM. In data set [4], this compound registered an IC50 at 3 days of 9.35 ± 0.21 µM. Besides, the “Absorbance” value in the data set on DNA came out at 0.165 ± 0.19.

For `Cc1n[nH]c2c1C1C(=C(N)O2)C(=O)N=C2SC=NN21` (centres unmarked) [Compound 10a, 6-Amino-10-methyl-8,10b-dihydro-5H-pyrazolo[4′,3′:5,6]pyrano[3,4-e][1,3,4]thiadiazolo[3,2-a]pyrimidin-5-one], the MIC with Bacillus cereus UW85 was 625 µg/mL (≈ 2260 µM); in data set [1] it was 1250 µg/mL (≈ 4520 µM); in data set [2], 312 µg/mL (≈ 1130 µM); in data set [3], 625 µg/mL (≈ 2260 µM). For the same compound, the IC50 with Hep-2 was found to be 34 ± 0.46 µM; in the data set with HepG2, 42 ± 1.24 µM; in the data set with MCF-7 it was 24.2 ± 0.52 µM; with PC3 it was 40.11 ± 0.36 µM. Besides, inhibition in data set [4] was half-maximal at 23.3 ± 0.6 µM (IC50 at 3 days). In the data set on DNA, the “Absorbance” value is on record as 0.098 ± 0.07.

In the case of `COc1ccc(N=Nc2c(O)nn3c(N)c4c(=O)nc5scnn5c4nc23)cc1` [Compound 17b, 6-Amino-9-hydroxy-10-(4-methoxyphenylazo)-5H-pyrazolo[1′,5′:1,2]pyrimido[5,4-e][1,3,4]thiadiazolo[3,2-a]pyrimidin-5-one], the MIC in the data set with Bacillus cereus UW85 was 625 µg/mL (≈ 1530 µM); in data set [1], 19.5 µg/mL (≈ 47.6 µM); in data set [2], 39 µg/mL (≈ 95.3 µM); in [3] it was 1250 µg/mL (≈ 3050 µM). For the same compound, the IC50 in the data set with Hep-2 is 19 ± 0.4 µM; in the data set with HepG2 it was 33.54 ± 0.25 µM; with MCF-7, 8.84 ± 0.17 µM; in the data set on PC3, 36.8 ± 0.43 µM. Besides, the midpoint of inhibition in data set [4], the IC50 at 3 days, lay at 58.4 ± 2.29 µM. Also, in the data set on DNA, the “Absorbance” value turned out to be 0.042 ± 0.03.

As to `Cc1nn(-c2ccccc2)c2c1C1C(=C(N)O2)C(=O)N=C2SC=NN21` (centres unmarked) [Compound 10b, 6-Amino-10-methyl-8-phenyl-8,10b-dihydro-5H-pyrazolo[4′,3′:5,6]pyrano[3,4-e][1,3,4]thiadiazolo[3,2-a]pyrimidin-5-one], the MIC is 625 µg/mL (≈ 1770 µM) with Bacillus cereus UW85, 312 µg/mL (≈ 887 µM) in data set [1], 625 µg/mL (≈ 1770 µM) in data set [2] and 625 µg/mL (≈ 1770 µM) in data set [3]. Besides, the IC50 came to 28.8 ± 1.8 µM with Hep-2, 37.6 ± 1.26 µM in the data set on HepG2, 27.4 ± 0.49 µM with MCF-7 and 27.3 ± 0.53 µM with PC3. The compound also registered a concentration for half-maximal inhibition (IC50) at 3 days in data set [4] of 25.4 ± 0.62 µM. Also, in the data set on DNA, the “Absorbance” value is recorded as 0.119 ± 0.13.
